Assay results published in patent US20150265691A1 (priority 2006, published 2015).
“And” between values parts separate entries of the source, which are not always exact repeats. Equal entries are not always repeated. Where two headings read alike, the source gives them in different places.

Assays:
Assay type in all cases: binding
[1] = system: rabbit anti-anthrax spore IgG
[2] = system: rabbit anti-B. anthracis spore polyclonal IgG antibodies
[3] = system: rabbit anti-anthrax spore IgG; remark: listed apart in the source
[4] = system: rabbit anti-B. anthracis spore polyclonal IgG antibodies; remark: listed apart in the source

Molecule	IgG signal detected by glycan arrays (n = 3) Mean [2]	antibody reactivity detected by glycan arrays [2]	other results
COC(=O)CCCCCO[C@@H]1O[C@H](C)[C@@H](NC(=O)CC(C)(C)O)[C@H](O)[C@H]1OC [Saccharide 1, 5-(Methoxycarbonyl)pentyl 4-(3-hydroxy-3-methylbutanamido)-2-O-methyl-4,6-dideoxy-β-D-glucopyranoside]	1.44	marginally reactive	I^50 [1]: 7.3 nmol; IC50 [3]: 688 pM; relative inhibiting powers [3]: 43.3; blocking of antibody reactivity with anthrose-containing tri- and tetra-saccharides [4]: blocked the antibody reactivity; inhibition of other antibody reactivities: binding to isolichenin and Pn 23 polysaccharide [4]: no significant inhibition
COC(=O)CCCCCO[C@@H]1O[C@@H](C)[C@H](O)[C@@H](O[C@@H]2O[C@H](C)[C@@H](NC(=O)CC(C)(C)O)[C@H](O)[C@H]2OC)[C@H]1O [Saccharide 2, 5-(Methoxycarbonyl)pentyl 4-(3-hydroxy-3-methylbutanamido)-2-O-methyl-4,6-dideoxy-β-D-glucopyranosyl-(1→3)-α-L-rhamnopyranoside]	1.65	marginally reactive	IC50 [3]: 19 pM; relative inhibiting powers [3]: 1.18
COC(=O)CCCCCO[C@@H]1O[C@@H](C)[C@H](O)[C@@H](O)[C@H]1O[C@@H]1O[C@@H](C)[C@H](O)[C@@H](O[C@@H]2O[C@H](C)[C@@H](NC(=O)CC(C)(C)O)[C@H](O)[C@H]2OC)[C@H]1O [Saccharide 3, 5-(Methoxycarbonyl)pentyl 4-(3-hydroxy-3-methylbutanamido)-2-O-methyl-4,6-dideoxy-β-D-glucopyranosyl-(1→3)-α-L-rhamnopyranosyl-(1→2)-α-L-rhamnopyranoside]	2.73	significant amounts of IgG antibodies	IC50 [3]: 16 pM; relative inhibiting powers [3]: 1.00
COC(=O)CCCCCO[C@H]1O[C@@H](C)[C@H](O)[C@@H](O)[C@H]1O[C@@H]1O[C@@H](C)[C@H](O)[C@@H](O[C@@H]2O[C@@H](C)[C@H](O)[C@@H](O[C@@H]3O[C@H](C)[C@@H](NC(=O)CC(C)(C)O)[C@H](O)[C@H]3OC)[C@H]2O)[C@H]1O [Saccharide 4, 5-(Methoxycarbonyl)pentyl 4-(3-hydroxy-3-methylbutanamido)-2-O-methyl-4,6-dideoxy-β-D-glucopyranosyl-(1→3)-α-L-rhamnopyranoyl-(1→3)-α-L-rhamnopyranosyl-(1→2)-β-L-rhamnopyranoside]	5.16	significant amounts of IgG antibodies	I^50 [1]: 0.23 nmol
COC(=O)CCCCCO[C@@H]1O[C@@H](C)[C@H](O)[C@@H](O)[C@H]1O[C@@H]1O[C@@H](C)[C@H](O)[C@@H](O[C@@H]2O[C@@H](C)[C@H](O)[C@@H](O[C@@H]3O[C@H](C)[C@@H](NC(=O)CC(C)(C)O)[C@H](O)[C@H]3OC)[C@H]2O)[C@H]1O [Saccharide 5, 5-(Methoxycarbonyl)pentyl 4-(3-hydroxy-3-methylbutanamido)-2-O-methyl-4,6-dideoxy-β-D-glucopyranosyl-(1→3)-α-L-rhamnopyranoyl-(1→3)-α-L-rhamnopyranosyl-(1→2)-α-L-rhamnopyranoside]	5.19	significant amounts of IgG antibodies	I^50 [1]: 0.18 nmol
COC(=O)CCCCCO[C@@H]1O[C@@H](C)[C@H](O)[C@@H](O)[C@H]1O[C@@H]1O[C@@H](C)[C@H](O)[C@@H](O[C@@H]2O[C@@H](C)[C@H](O)[C@@H](O)[C@H]2O)[C@H]1O [Saccharide 17, 5-(Methoxycarbonyl)pentyl α-L-rhamnopyranosyl-(1→3)-α-L-rhamnopyranosyl-(1→2)-α-L-rhamnopyranoside]	0.98	–	IgG reactivities (Ratio of Sg./bg.) Mean [4]: 1.04 and 0.97 and 1.00 and 0.99
Methyl 2-O-methyl-4,6-dideoxy-4-(3-deoxy-L-glycero-tetronamido)-<-D-mannopyranosyl-(1→2)-tris[4,6-dideoxy-4-(3-deoxy-L-glycero-tetronamido)-<-D-mannopyranosyl-(1→2)]-4,6-dideoxy-4-(3-deoxy-L-glycero-tetronamido)-<-D-mannopyranoside [Saccharide 29]	1.09	–	–
Nigerose [reference compound]	–	–	inhibition of antibody reactivity with anthrose-tetrasaccharide [3]: no inhibition
Streptococcus pneumoniae type 23 capsular polysaccharide [Saccharide 35]	–	positive spots	IgG reactivities (Ratio of Sg./bg.) Mean [2]: 12.35
[Methyl 2-O-methyl-4,6-dideoxy-4-(3-deoxy-L-glycero-tetronamido)-<-D-mannopyranosyl-(1→2)-4,6-dideoxy-4-(3-deoxy-L-glycero-tetronamido)-<-D-mannopyranosyl-(1→2)-4,6-dideoxy-4-(3-deoxy-L-glycero-tetronamido)-<-D-mannopyranoside]5-BSA [Saccharide 31]	1.53	–	–
[Methyl 2-O-methyl-4,6-dideoxy-4-(3-deoxy-L-glycero-tetronamido)-<-D-mannopyranosyl-(1→2)-bis[4,6-dideoxy-4-(3-deoxy-L-glycero-tetronamido)-<-D-mannopyranosyl-(1→2)]-4,6-dideoxy-4-(3-deoxy-L-glycero-tetronamido)-<-D-mannopyranoside]10-BSA [Saccharide 32]	1.20	–	–
[Methyl 2-O-methyl-4,6-dideoxy-4-(3-deoxy-L-glycero-tetronamido)-<-D-mannopyranosyl-(1→2)-tris[4,6-dideoxy-4-(3-deoxy-L-glycero-tetronamido)-<-D-mannopyranosyl-(1→2)]-4,6-dideoxy-4-(3-deoxy-L-glycero-tetronamido)-<-D-mannopyranoside]10-BSA [Saccharide 33]	1.37	–	–
isomaltopentose [IM5, reference compound]	–	–	inhibition of antibody reactivity with anthrose-tetrasaccharide [3]: no inhibition
